Source: ChEMBL document CHEMBL5584263, “Novel inhibitor N-cyclopropyl-4-((4-((4-(trifluoromethyl)phenyl)sulfonyl)piperazin-1-yl)methyl)benzamide attenuates RANKL-mediated osteoclast differentiation in vitro” (Bioorg Med Chem Lett, 2024)
Calls of active or inactive are those of the source. The rule behind the calls is not given here.

What was measured:
[1] = Partition coefficient, logP of compound; assay type: physicochemical; conditions: octanol/water
BMMC [2] = test: Inhibition of osteoclastogenesis in mouse BMMC at 0.5 uM by TRAP staining based assay; assay type: functional
BMMC [3] = test: Inhibition of osteoclastogenesis in mouse BMMC at 2 uM by TRAP staining based assay; assay type: functional
BMMC [4] = test: Inhibition of osteoclastogenesis in mouse BMMC at 1 uM by TRAP staining based assay; assay type: functional
BMMC [5] = test: Inhibition of osteoclastogenesis in mouse BMMC by TRAP staining based assay; assay type: functional, cell-based
BMMC [6] = test: Inhibition of osteoclast differentiation in mouse BMMCs assessed as reduction in […] mRNA expression at 1.25 uM incubated for 3 days by qRT-PCR analysis; assay type: functional, cell-based; conditions: time 3.0 day
BMMC [7] = test: Inhibition of osteoclast differentiation in mouse BMMCs assessed as reduction in Dc-stamp mRNA expression at 1.25 uM incubated for 3 days by qRT-PCR analysis; assay type: functional, cell-based; conditions: time 3.0 day
BMMC [8] = test: Inhibition RANKL-induced F-actin ring formation in mouse BMMC at 0.625 to 2.5 uM incubated for 4 days by immunofluorescence assay; assay type: functional, cell-based; conditions: dose 0.625-2.5 µM, time 4.0 day
BMMC [9] = test: Inhibition of RANKL mediated […] differentiation in mouse BMMC at 0.25 to 2 uM incubated for 4 days by TRAP staining based assay; assay type: functional, cell-based; conditions: dose 0.25-2 µM, time 4.0 day
BMMC [10] = test: Inhibition of osteoclast differentiation in mouse BMMCs assessed as reduction in Mmp9 mRNA expression at 1.25 uM incubated for 3 days by qRT-PCR analysis; assay type: functional, cell-based; conditions: time 3.0 day
BMMC [11] = test: Inhibition of osteoclast differentiation in mouse BMMCs assessed as reduction in ACP5 mRNA expression at 1.25 uM incubated for 3 days by qRT-PCR analysis; assay type: functional, cell-based; conditions: time 3.0 day
BMMC [12] = test: Inhibition of osteoclast differentiation in mouse BMMCs assessed as reduction in Cathepsin K protein expression at 1.25 uM incubated for 3 days by immunoblotting analysis; assay type: functional, cell-based; conditions: time 3.0 day
Mus musculus = test: Inhibition of osteoclast differentiation in ovariectomized osteoporosis mouse model at 10 mg/kg, ip administered for 4 weeks; assay type: functional, organism-based
[13] = Effect on mouse BMMCs viability at below 10 uM incubated for 48 hrs by MTT assay; assay type: toxicity, cell-based; conditions: bmmc
Calvarial osteoblast = test: Effect on cell viability in osteoblast cells (unknown origin) upto 4 uM incubated for 48 hrs by MTT assay; assay type: toxicity, cell-based
BMMC [14] = test: Inhibition of osteoclast differentiation in mouse BMMCs assessed as reduction in Nfatc1 mRNA expression at 1.25 uM incubated for 3 days by qRT-PCR analysis; assay type: functional, cell-based; conditions: time 3.0 day
BMMC [15] = test: Inhibition of osteoclastogenesis in mouse BMMC assessed as reduction in fusion of mononuclear osteoclast cells to form large multinucleated osteoclast cells at 0.25 to 2 uM; assay type: functional, cell-based; conditions: dose 0.25-2 µM
BMMC [16] = test: Inhibition RANKL-induced bone resorption in mouse BMMC at 0.625 to 2.5 uM incubated for 4 days by immunofluorescence assay; assay type: functional, cell-based; conditions: dose 0.625-2.5 µM, time 4.0 day
BMMC [17] = test: Inhibition of osteoclast differentiation in mouse BMMCs assessed as reduction in Cathepsin K mRNA expression at 1.25 uM incubated for 3 days by qRT-PCR analysis; assay type: functional, cell-based; conditions: time 3.0 day
BMMC [18] = test: Inhibition of osteoclast differentiation in mouse BMMCs assessed as reduction in c-fos protein expression at 1.25 uM incubated for 3 days by immunoblotting analysis; assay type: functional, cell-based; conditions: time 3.0 day
BMMC [19] = test: Inhibition of osteoclast differentiation in mouse BMMCs assessed as reduction in NFATc1 protein expression at 1.25 uM incubated for 3 days by immunoblotting analysis; assay type: functional, cell-based; conditions: time 3.0 day
BMMC [20] = test: Inhibition of RANKL mediated […] differentiation in mouse BMMC incubated for 4 days by TRAP staining based assay; assay type: functional, cell-based; conditions: dose 0.25-2 µM, time 4.0 day

SMILES | logP [1] | inhibition at 0.5 µM (BMMC [2]) [%] | inhibition at 2 µM (BMMC [3]) [%] | inhibition at 1 µM (BMMC [4]) [%] | IC50 (BMMC [5]) [nM] | other results
CCCCCCCCS(=O)(=O)N1CCN(Cc2ccc(C(=O)NC3CC3)cc2)CC1 | 5.7 | 23.9 | 84 | 33.2 | 1140 | –
COc1cccc(S(=O)(=O)N2CCN(Cc3ccc(C(=O)NC4CC4)cc3)CC2)c1 | 2.7 | -22.8 | -5.21 | -20.9 | – | –
CC(C)(C)c1ccc(S(=O)(=O)N2CCN(Cc3ccc(C(=O)NC4CC4)cc3)CC2)cc1 | 4.1 | 23.6 | 100 | 74.1 | 550 | –
O=C(NC1CC1)c1ccc(CN2CCN(S(=O)(=O)c3cccc(Cl)c3)CC2)cc1 | 3.3 | -49.2 | 71.7 | 25.2 | 3030 | –
O=C(NC1CC1)c1ccc(CN2CCN(S(=O)(=O)c3ccc(C(F)(F)F)cc3)CC2)cc1 | 3.5 | 17.7 | 96.8 | 72 | 640 | inhibition (BMMC [6]): Active; inhibition (BMMC [7]): Active; inhibition (BMMC [8]): Active; inhibition (BMMC [9]): Active; inhibition (BMMC [10]): Active; inhibition (BMMC [11]): Active; inhibition (BMMC [12]): Active; inhibition (Mus musculus): inactive; Activity [13]: Non-Toxic; Activity (Calvarial osteoblast): Non-Toxic; inhibition (BMMC [14]): Active; inhibition (BMMC [15]): Active; inhibition (BMMC [16]): Active; inhibition (BMMC [17]): Active; inhibition (BMMC [18]): Active; inhibition (BMMC [19]): Active; inhibition (BMMC [20]): Dose-Dependent Effect

Second part, led by results:

logP [1] | SMILES | inhibition at 0.5 µM (BMMC [2]) [%] | inhibition at 2 µM (BMMC [3]) [%] | inhibition at 1 µM (BMMC [4]) [%] | IC50 (BMMC [5]) [nM] | other results
2.6 | O=C(NC1CC1)c1ccc(CN2CCN(S(=O)(=O)c3ccc([N+](=O)[O-])cc3)CC2)cc1 | 48.9 | 46.7 | 25.5 | 1690 | –
2.3 | CC(=O)c1ccc(S(=O)(=O)N2CCN(Cc3ccc(C(=O)NC4CC4)cc3)CC2)cc1 | 17.6 | 14.7 | 16.9 | 7240 | –
4.1 | O=C(NC1CC1)c1ccc(CN2CCN(S(=O)(=O)c3ccc(-c4ccccc4)cc3)CC2)cc1 | 9.56 | 100 | 64.6 | 750 | –
2.6 | COc1ccc(S(=O)(=O)N2CCN(Cc3ccc(C(=O)NC4CC4)cc3)CC2)cc1 | -9.9 | 10.6 | -13.8 | 221000 | –
